Measurements: patent publication EP2998294A1, “Naphthyl sulfonamide phenyl derivatives as KEAP-1 modulators for the treatment of diabetes, obesity, dyslipidemia and related disorders” (SANOFI, priority 2014, dated 2016)

These compounds were tested against T1, human Keap1 kelch domain (amino acids Ala321-Thr609) (Homo sapiens, UniProt Q14145) (assay: Keap1-Nrf2 peptide binding assay (fluorescence polarisation)). Conditions: binding of Keap1 kelch domain (20 nM) to fluorescently labeled Nrf2 peptide (50 nM).
T1 construct: human Keap1 kelch domain (amino acids Ala321-Thr609)
T1 sequence (Q14145 321-609): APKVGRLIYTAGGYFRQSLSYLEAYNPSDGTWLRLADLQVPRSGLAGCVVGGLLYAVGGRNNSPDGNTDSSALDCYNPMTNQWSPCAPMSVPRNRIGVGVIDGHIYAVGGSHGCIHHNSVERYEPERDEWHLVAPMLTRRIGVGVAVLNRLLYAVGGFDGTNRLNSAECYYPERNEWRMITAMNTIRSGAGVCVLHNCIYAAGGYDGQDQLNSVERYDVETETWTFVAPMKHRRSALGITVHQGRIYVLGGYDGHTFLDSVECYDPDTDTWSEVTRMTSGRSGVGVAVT
Procedure: A fluorescence polarisation assay was used to measure binding of the human Keap1 kelch domain (amino acids Ala321-Thr609) to a fluorescently labeled peptide containing a Keap1 binding site of human Nrf2 (Alexa633-AFFAQLQLDEETGEFL; JPT Technologies, Berlin, Germany). Two microliters of test compound in reaction buffer (phosphate-buffered saline, 2 mM DL-dithiothreitol, 0.015 % (v/v) Brij-35) containing 6 % (v/v) DMSO were mixed with two microliters of the Keap1 kelch domain in reaction buffer in a black 384-well small volume microtiter plate and incubated at ambient temperature for 15 minutes. Thereafter, two microliters were added of the fluorescently labeled Nrf2 peptide in reaction buffer, and the mixture was incubated for a further 30 minutes at ambient temperature. Final concentrations of the Keap1 kelch domain and the fluorescently labeled Nrf2 peptide were 20 nM and 50 nM, respectively.
Fluorescence polarization (FP) was measured at excitation and emission wavelengths of 635 nm and 660 nm, respectively. Positive controls for binding (two microliters of reaction buffer containing 6 % (v/v) DMSO instead of test compound in the same buffer) and negative controls (as positive controls, but without Keap1 kelch domain) were included on each microtiter plate. Data were expressed as percent-inhibition values: percentinhibition = 100⋅(1-(|FPcompound-FPnegative controle|)/(|FPpositive controle-FPnegative controle|)) [formula]
IC50 values were determined by testing different compound concentrations and fitting the resulting percent-inhibition values to the following equation using XLFit4: percentinhibition = A + (B-A)/(1 + (((IC50)/([Compound])))^D) [formula]
Parameter A was set to zero, pre-fit values for parameters B and D were set to 100 and 1, respectively.

| Structure (SMILES) | IC50 [µM] |
| --- | --- |
| Cc1c(Cl)cccc1S(=O)(=O)Nc1ccc(-c2cccc(C(=O)O)c2)c2ccccc12 [Example 13, 3-[4-[(3-chloro-2-methylphenyl)sulfonylamino]-1-naphthyl]benzoic acid] | 1.1 |
| O=C(O)c1cccc(-c2ccc(NS(=O)(=O)c3ccc(Cl)cc3Cl)c3ccccc23)c1 [Example 15, 3-[4-[(2,4-dichlorophenyl)sulfonylamino]-1-naphthyl]benzoic acid] | 1 |
| O=C(O)c1cccc(-c2ccc(NS(=O)(=O)c3cc(Cl)c(Cl)s3)c3ccccc23)c1 [Example 19, 3-[4-[(4,5-dichloro-2-thienyl)sulfonylamino]-1-naphthyl]benzoic acid] | 7 |
| Cc1cccc(Cl)c1S(=O)(=O)Nc1ccc(-c2cccc(C(=O)O)c2)c2ccccc12 [Example 21, 3-[4-[(2-chloro-6-methylphenyl)sulfonylamino]-1-naphthyl]benzoic acid] | 1.8 |
| N#Cc1ccc(S(=O)(=O)Nc2ccc(-c3cccc(C(=O)O)c3)c3ccccc23)c(Cl)c1 [Example 33, 3-[4-[(2-chloro-4-cyanophenyl)sulfonylamino]-1-naphthyl]benzoic acid] | 5.2 |
| O=C(O)c1cccc(-c2ccc(NS(=O)(=O)c3cccc(Cl)c3Cl)c3ccccc23)c1 [Example 34, 3-[4-[(2,3-dichlorophenyl)sulfonylamino]-1-naphthyl]benzoic acid] | 1.5 |
| O=C(O)c1cccc(-c2ccc(NS(=O)(=O)c3ccc(F)cc3Cl)c3ccccc23)c1 [Example 35, 3-[4-[(2-chloro-4-fluorophenyl)sulfonylamino]-1-naphthyl]benzoic acid] | 5.6 |

Same assay, conditions: binding of Keap1 kelch domain (20 nM) to fluorescently labeled Nrf2 peptide (50 nM); read-out: IC50

| Structure (SMILES) | IC50 [µM] |
| --- | --- |
| Cc1cc(C)c(C)c(S(=O)(=O)Nc2ccc(-c3cccc(C(=O)O)c3)c3ccccc23)c1C [Example 1, 3-[4-[(2,3,5,6-tetramethyl-phenyl)-sulfonylamino]-1-naphthyl]benzoic acid] | 0.2 |
| COc1ccc(S(=O)(=O)Nc2ccc(-c3cccc(C(=O)O)c3)c3ccccc23)c(OC)c1 [Example 2, 3-[4-[(2,4-dimethoxyphenyl)sulfonylamino]-1-naphthyl]benzoic acid] | 4.5 |
| Cc1ccc(S(=O)(=O)Nc2ccc(-c3cccc(C(=O)O)c3)c3ccccc23)cc1 [Example 3, 3-[4-(p-tolylsulfonylamino)-1-naphthyl]benzoic acid] | 2.1 |
| Cc1cc(C)c(C)c(S(=O)(=O)Nc2ccc(-c3cccc(C(=O)O)c3F)c3ccccc23)c1C [Example 4, 2-fluoro-3-[4-[(2,3,5,6-tetramethylphenyl)sulfonylamino]-1-naphthyl]benzoic acid] | 0.2 |
| Cc1cc(C)c(C)c(S(=O)(=O)Nc2ccc(-c3cc(C(=O)O)ccc3F)c3ccccc23)c1C [Example 5, 4-fluoro-3-[4-[(2,3,5,6-tetramethylphenyl)sulfonylamino]-1-naphthyl]benzoic acid] | 0.09 |
| Cc1cc(C)c(C)c(S(=O)(=O)Nc2ccc(-c3ccc(F)c(C(=O)O)c3)c3ccccc23)c1C [Example 6, 2-fluoro-5-[4-[(2,3,5,6-tetramethylphenyl)sulfonylamino]-1-naphthyl]benzoic acid] | 1.7 |
| Cc1ccc2c(NS(=O)(=O)c3c(C)c(C)cc(C)c3C)ccc(-c3cccc(C(=O)O)c3)c2n1 [Example 7, 3-[2-methyl-5-[(2,3,5,6-tetramethylphenyl)sulfonylamino]-8-quinolyl]benzoic acid] | 1.1 |
| Cc1nc(-c2ccc(C(F)(F)F)cc2)sc1S(=O)(=O)Nc1ccc(-c2cccc(C(=O)O)c2F)c2ccccc12 [Example 8, 2-fluoro-3-[4-[[4-methyl-2-[4-(trifluoromethyl)phenyl]thiazol-5-yl]sulfonylamino]-1-naphthyl]benzoic acid] | 5.2 |
| Cc1nc(-c2ccc(C(F)(F)F)cc2)sc1S(=O)(=O)Nc1ccc(-c2cc(C(=O)O)ccc2F)c2ccccc12 [Example 9, 4-fluoro-3-[4-[[4-methyl-2-[4-(trifluoromethyl)phenyl]thiazol-5-yl]sulfonylamino]-1-naphthyl]benzoic acid] | 5.8 |
| Cc1cc(C)c(C)c(S(=O)(=O)Nc2ccc(-c3cccc(C(=O)O)c3O)c3ccccc23)c1C [Example 10, 2-hydroxy-3-[4-[(2,3,5,6-tetramethylphenyl)sulfonylamino]-1-naphthyl]benzoic acid] | 2.5 |
| CC(=O)Nc1nc(C)c(S(=O)(=O)Nc2ccc(-c3cccc(C(=O)O)c3)c3ccccc23)s1 [Example 11, 3-[4-[(2-acetamido-4-methyl-thiazol-5-yl)sulfonylamino]-1-naphthyl]benzoic acid] | 2.8 |
| Cc1nn(C)c(Cl)c1S(=O)(=O)Nc1ccc(-c2cccc(C(=O)O)c2)c2ccccc12 [Example 12, 3-[4-[(5-chloro-1,3-dimethyl-pyrazol-4-yl)sulfonylamino]-1-naphthyl]benzoic acid] | 0.4 |
| Cc1cc(S(=O)(=O)Nc2ccc(-c3cccc(C(=O)O)c3)c3ccccc23)c(Cl)cc1Cl [Example 14, 3-[4-[(2,4-dichloro-5-methylphenyl)sulfonylamino]-1-naphthyl]benzoic acid] | 3.8 |
| O=C(O)c1cccc(-c2ccc(NS(=O)(=O)c3c(F)cccc3F)c3ccccc23)c1 [Example 16, 3-[4-[(2,6-difluorophenyl)sulfonylamino]-1-naphthyl]benzoic acid] | 6.5 |
| Cc1c(S(=O)(=O)Nc2ccc(-c3cccc(C(=O)O)c3)c3ccccc23)sc2ccc(Cl)cc12 [Example 17, 3-[4-[(5-chloro-3-methyl-benzothiophen-2-yl)sulfonylamino]-1-naphthyl]benzoic acid] | 1.6 |
| COc1cc(C)ccc1S(=O)(=O)Nc1ccc(-c2cccc(C(=O)O)c2)c2ccccc12 [Example 18, 3-[4-[(2-methoxy-4-methylphenyl)sulfonylamino]-1-naphthyl]benzoic acid] | 5.8 |
| O=C(O)c1cccc(-c2ccc(NS(=O)(=O)c3ccc(-n4cccn4)cc3)c3ccccc23)c1 [Example 20, 3-[4-[(4-pyrazol-1-ylphenyl)sulfonylamino]-1-naphthyl]benzoic acid] | 4 |
| Cc1nn(C)c(C)c1S(=O)(=O)Nc1ccc(-c2cccc(C(=O)O)c2)c2ccccc12 [Example 22, 3-[4-[(1,3,5-trimethylpyrazol-4-yl)sulfonylamino]-1-naphthyl]benzoic acid] | 0.8 |
| Cc1c(S(=O)(=O)Nc2ccc(-c3cccc(C(=O)O)c3)c3ccccc23)cnn1-c1ccccc1 [Example 23, 3-[4-[(5-methyl-1-phenyl-pyrazol-4-yl)sulfonylamino]-1-naphthyl]benzoic acid] | 4.5 |
| Cc1nc(C)c(S(=O)(=O)Nc2ccc(-c3cccc(C(=O)O)c3)c3ccccc23)s1 [Example 24, 3-[4-[(2,4-dimethylthiazol-5-yl)sulfonylamino]-1-naphthyl]benzoic acid] | 4.6 |
| Cc1ccc2sc(S(=O)(=O)Nc3ccc(-c4cccc(C(=O)O)c4)c4ccccc34)cc2c1 [Example 25, 3-[4-[(5-methylbenzothiophen-2-yl)sulfonylamino]-1-naphthyl]benzoic acid] | 3 |
| O=C(O)c1cccc(-c2ccc(NS(=O)(=O)c3ccc(N4CCCC4=O)cc3)c3ccccc23)c1 [Example 26, 3-[4-[[4-(2-oxopyrrolidin-1-yl)phenyl]sulfonylamino]-1-naphthyl]benzoic acid] | 2.5 |
| CC(=O)N1c2ccc(S(=O)(=O)Nc3ccc(-c4cccc(C(=O)O)c4)c4ccccc34)cc2CC1C (stereo not drawn) [Example 27, 3-[4-[(1-acetyl-2-methyl-indolin-5-yl)sulfonylamino]-1-naphthyl]benzoic acid] | 3.6 |
| Cc1ccc(F)c(S(=O)(=O)Nc2ccc(-c3cccc(C(=O)O)c3)c3ccccc23)c1 [Example 28, 3-[4-[(2-fluoro-5-methylphenyl)sulfonylamino]-1-naphthyl]benzoic acid] | 5.1 |
| O=C(O)c1cccc(-c2ccc(NS(=O)(=O)c3ccc4[nH]c(=O)sc4c3)c3ccccc23)c1 [Example 29, 3-[4-[(2-oxo-3H-1,3-benzothiazol-6-yl)sulfonylamino]-1-naphthyl]benzoic acid] | 5.1 |
| CC(=O)N1CCCc2cc(S(=O)(=O)Nc3ccc(-c4cccc(C(=O)O)c4)c4ccccc34)ccc21 [Example 30, 3-[4-[(1-acetyl-3,4-dihydro-2H-quinolin-6-yl)sulfonylamino]-1-naphthyl]benzoic acid] | 4.3 |
| CC(=O)Nc1ccc(C)c(S(=O)(=O)Nc2ccc(-c3cccc(C(=O)O)c3)c3ccccc23)c1 [Example 31, 3-[4-[(5-acetamido-2-methylphenyl)sulfonylamino]-1-naphthyl]benzoic acid] | 3.2 |
| COc1ccc(F)c(S(=O)(=O)Nc2ccc(-c3cccc(C(=O)O)c3)c3ccccc23)c1 [Example 32, 3-[4-[(2-fluoro-5-methoxyphenyl)sulfonylamino]-1-naphthyl]benzoic acid] | 3.3 |
| O=C(O)c1cccc(-c2ccc(NS(=O)(=O)c3ccc(N4CCOCC4)nc3)c3ccccc23)c1 [Example 36, 3-[4-[(6-morpholino-3-pyridyl)sulfonylamino]-1-naphthyl]benzoic acid] | 4.2 |
